Test results from patent US20230015478A1, “GLP-1 RECEPTOR AGONISTS HAVING IMPROVED PHARMACOLOGICAL AND DRUG DELIVERY PROPERTIES” (priority 2021, published 2023).
Like-named read-outs stand apart in the source and are kept apart here. Numbered stars: 1 amine (or outer) side, 2 acyl side, 3 side chain; on linkers, the order of the positions; unused ones are H or OH. Square brackets hold non-standard residues; d marks the D form. Peptide text beside a SMILES is read from it. Bip = N[C@@H](Cc1ccc(-c2ccccc2)cc1)C(=O)O; X1 = C[C@@](CCc1ccccc1)(N[*:1])C(=O)[*:2]; αMePhe(2-F) = C[C@](N)(Cc1ccccc1F)C(=O)O; hTyr = N[C@@H](CCc1ccc(O)cc1)C(=O)O; hPhe = N[C@@H](CCc1ccccc1)C(=O)O; αMeF = C[C@](N)(Cc1ccccc1)C(=O)O; αMeP = C[C@@]1(C(=O)O)CCCN1; AEEA = NCCOCCOCC(=O)O; Aib = CC(C)(N)C(=O)O

Target: T1, hGLP1 receptor (Homo sapiens, UniProt P43220)
T1 construct: expressed in transfected cells; host or cells: HEK (human embryonic kidney) cells co-expressing hGLP1 receptor and CRE-Luciferase
T1 sequence (P43220 24-463): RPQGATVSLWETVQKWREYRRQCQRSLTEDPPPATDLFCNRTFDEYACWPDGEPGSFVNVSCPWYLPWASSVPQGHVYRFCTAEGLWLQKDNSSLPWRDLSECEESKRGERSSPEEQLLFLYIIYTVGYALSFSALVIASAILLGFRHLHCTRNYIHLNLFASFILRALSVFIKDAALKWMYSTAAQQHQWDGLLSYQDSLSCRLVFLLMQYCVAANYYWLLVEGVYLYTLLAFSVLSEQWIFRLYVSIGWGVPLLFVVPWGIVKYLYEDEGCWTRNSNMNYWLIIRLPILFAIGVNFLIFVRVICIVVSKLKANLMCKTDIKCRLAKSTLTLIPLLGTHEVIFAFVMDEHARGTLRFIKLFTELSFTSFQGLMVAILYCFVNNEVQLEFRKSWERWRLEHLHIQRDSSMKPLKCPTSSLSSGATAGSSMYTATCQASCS
Experiment: cAMP HTRF agonist assay in HEK cells co-expressing hGLP1 receptor and CRE-Luciferase
Type: cell-based
Details: for potency compared with the parent peptide analog (1-2): replacement of Aib2, in words
Summary of the method: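 HEK cells co-expressing hGLP1R and CRE-luciferase, 1000 cells/well in DPBS with 500 μM IBMX, exposed to peptides or exendin-4 reference for 30 min; 11-point 1:3 series from top 1.0 μM. cAMP measured by HTRF (665/615 nm) after 1 h at room temperature; EC50 from 4-parameter logistic fit.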

[1] = cAMP EC50, nM (0.1% albumin), Table 3, 0.1% albumin
[2] = cAMP EC50, nM (0.1% albumin), Table 4, 0.1% albumin
[3] = Table 5, 0% albumin, read-out: cAMP EC50, nM (0% albumin)
[4] = cAMP EC50, nM (0.1% albumin), Table 6, 0.1% albumin

C[C@@H](O)[C@H](NC(=O)CNC(=O)[C@H](CCC(=O)O)NC(=O)C(C)(C)NC(=O)[C@@H](N)Cc1c[nH]cn1)C(=O)N[C@@](C)(Cc1ccccc1F)C(=O)NC(C)(C)C(=O)N[C@@H](CO)C(=O)N[C@@H](CC(=O)O)C(=O)N[C@@H](Cc1ccc(-c2ccccc2)cc1)C(=O)N[C@@H](Cc1ccc(-c2ccccc2)cc1)C(N)=O [3-35, H2N-His-Aib-Glu-Gly-Thr-αMePhe(2-F)-Aib-Ser-Asp-Bip-Bip-C(O)NH2] (H-H[Aib]EGT[αMePhe(2-F)][Aib]SD[Bip][Bip]-NH2)
EC50 [1]: 91.4 nM

C[C@@H](O)[C@H](NC(=O)CNC(=O)[C@H](CCC(=O)O)NC(=O)C(C)(C)NC(=O)[C@@H](N)Cc1c[nH]cn1)C(=O)N[C@@](C)(Cc1ccccc1F)C(=O)N[C@H](C(=O)NC(C)(C)C(=O)N[C@@H](CC(=O)O)C(=O)N[C@@H](Cc1ccc(-c2ccccc2)cc1)C(=O)N[C@@H](Cc1ccc(-c2ccccc2)cc1)C(N)=O)[C@@H](C)O [3-36, H2N-His-Aib-Glu-Gly-Thr-αMePhe(2-F)-Thr-Aib-Asp-Bip-Bip-C(O)NH2] (H-H[Aib]EGT[αMePhe(2-F)]T[Aib]D[Bip][Bip]-NH2)
EC50 [1]: 150 nM

C[C@@H](O)[C@H](NC(=O)CNC(=O)[C@H](CCC(=O)O)NC(=O)C(C)(C)NC(=O)[C@@H](N)Cc1c[nH]cn1)C(=O)N[C@@](C)(Cc1ccccc1F)C(=O)N[C@H](C(=O)N[C@@H](CO)C(=O)NC(C)(C)C(=O)N[C@@H](Cc1ccc(-c2ccccc2)cc1)C(=O)N[C@@H](Cc1ccc(-c2ccccc2)cc1)C(N)=O)[C@@H](C)O [3-37, H2N-His-Aib-Glu-Gly-Thr-αMePhe(2-F)-Thr-Ser-Aib-Bip-Bip-C(O)NH2] (H-H[Aib]EGT[αMePhe(2-F)]TS[Aib][Bip][Bip]-NH2)
EC50 [1]: 91.6 nM

C[C@@H](O)[C@H](NC(=O)CNC(=O)[C@H](CCC(=O)O)NC(=O)[C@@H]1CCCN1C(=O)[C@@H](N)Cc1c[nH]cn1)C(=O)N[C@@](C)(Cc1ccccc1F)C(=O)N[C@H](C(=O)N[C@@H](CO)C(=O)N[C@@H](CC(=O)O)C(=O)N[C@@H](Cc1ccc(-c2ccccc2)cc1)C(=O)N[C@@H](Cc1ccc(-c2ccccc2)cc1)C(N)=O)[C@@H](C)O [3-38, H2N-His-Pro-Glu-Gly-Thr-α-MePhe(2-F)-Thr-Ser-Asp-Bip-Bip-C(O)NH2] (H-HPEGT[αMePhe(2-F)]TSD[Bip][Bip]-NH2)
EC50 [2]: 0.04 nM

CC(C)[C@H](NC(=O)[C@@H](N)Cc1c[nH]cn1)C(=O)N[C@@H](CCC(=O)O)C(=O)NCC(=O)N[C@H](C(=O)N[C@@](C)(Cc1ccccc1F)C(=O)N[C@H](C(=O)N[C@@H](CO)C(=O)N[C@@H](CC(=O)O)C(=O)N[C@@H](Cc1ccc(-c2ccccc2)cc1)C(=O)N[C@@H](Cc1ccc(-c2ccccc2)cc1)C(N)=O)[C@@H](C)O)[C@@H](C)O [3-39, H2N-His-Val-Glu-Gly-Thr-α-MePhe(2-F)-Thr-Ser-Asp-Bip-Bip-C(O)NH2] (H-HVEGT[αMePhe(2-F)]TSD[Bip][Bip]-NH2)
EC50 [2]: 0.37 nM | potency compared with the parent peptide analog (1-2): slightly less potency

C[C@@H](O)[C@H](NC(=O)CNC(=O)[C@H](CCC(=O)O)NC(=O)[C@]1(C)CCCN1C(=O)[C@@H](N)Cc1c[nH]cn1)C(=O)N[C@@](C)(Cc1ccccc1F)C(=O)N[C@H](C(=O)N[C@@H](CO)C(=O)N[C@@H](CC(=O)O)C(=O)N[C@@H](Cc1ccc(-c2ccccc2)cc1)C(=O)N[C@@H](Cc1ccc(-c2ccccc2)cc1)C(N)=O)[C@@H](C)O [3-40, H2N-His-α-MePro-Glu-Gly-Thr-α-MePhe(2-F)-Thr-Ser-Asp-Bip-Bip-C(O)NH2] (H-H[αMeP]EGT[αMePhe(2-F)]TSD[Bip][Bip]-NH2)
EC50 [2]: 0.003 nM | potency compared with the parent peptide analog (1-2): significantly greater potency

C[C@@H](O)[C@H](NC(=O)CNC(=O)[C@H](CCC(=O)O)NC(=O)C1(C)CCCN1C(=O)[C@@H](N)Cc1c[nH]cn1)C(=O)NC(C)(Cc1ccccc1F)C(=O)N[C@H](C(=O)N[C@@H](CO)C(=O)N[C@@H](CC(=O)O)C(=O)NC(C)(C)C(=O)N[C@@H](Cc1ccc(-c2ccccc2)cc1)C(N)=O)[C@@H](C)O (stereo partly drawn) [3-60, H2N-His-α-MePro-Glu-Gly-Thr-α-MePhe(2-F)-Thr-Ser-Asp-Aib-Bip-C(O)NH2]
EC50 [2]: > 1000 nM

C[C@@H](O)[C@H](NC(=O)CNC(=O)[C@H](CCC(=O)O)NC(=O)[C@]1(C)CCCN1C(=O)[C@@H](N)Cc1c[nH]cn1)C(=O)N[C@@](C)(Cc1ccccc1)C(=O)N[C@H](C(=O)N[C@@H](CO)C(=O)N[C@@H](CC(=O)O)C(=O)N[C@@H](Cc1ccc(-c2ccccc2)cc1)C(=O)NC(C)(C)C(N)=O)[C@@H](C)O [3-61, H2N-His-α-MePro-Glu-Gly-Thr-α-MePhe-Thr-Ser-Asp-Bip-Aib-C(O)NH2] (H-H[αMeP]EGT[αMeF]TSD[Bip][Aib]-NH2)
EC50 [2]: 8.3 nM

C[C@@H](O)[C@H](NC(=O)CNC(=O)[C@H](CCC(=O)O)NC(=O)C(C)(C)NC(=O)[C@@H](N)Cc1c[nH]cn1)C(=O)N[C@@](C)(Cc1ccccc1F)C(=O)N[C@@H](CC(N)=O)C(=O)N[C@@H](CO)C(=O)N[C@@H](CC(=O)O)C(=O)N[C@@H](Cc1ccc(-c2ccccc2)cc1)C(=O)N[C@@H](Cc1ccc(-c2ccccc2)cc1)C(N)=O [3-62, H2N-His-Aib-Glu-Gly-Thr-α-MePhe(2-F)-Asn-Ser-Asp-Bip-Bip-C(O)NH2] (H-H[Aib]EGT[αMePhe(2-F)]NSD[Bip][Bip]-NH2)
EC50 [2]: 3.1 nM

C[C@@H](O)[C@H](NC(=O)CNC(=O)[C@H](CCC(=O)O)NC(=O)C(C)(C)NC(=O)[C@@H](N)Cc1c[nH]cn1)C(=O)N[C@@](C)(Cc1ccccc1F)C(=O)N[C@H](C(=O)N[C@@H](CO)C(=O)N[C@@H](CC(=O)O)C(=O)N[C@@H](Cc1ccc(-c2ccccc2)cc1)C(=O)N[C@@H](CCc1ccccc1)C(=O)O)[C@@H](C)O [4-1, H2N-His-Aib-Glu-Gly-Thr-α-MePhe(2-F)-Thr-Ser-Asp-Bip-Hph-C(O)OH] (H-H[Aib]EGT[αMePhe(2-F)]TSD[Bip][hPhe]-OH)
EC50 [3]: 272 nM | fold lower potency than the parent peptide (1-4) (relative to parent 1-4): about 30 fold

C[C@@H](O)[C@H](NC(=O)CNC(=O)[C@H](CCC(=O)O)NC(=O)C(C)(C)NC(=O)[C@@H](N)Cc1c[nH]cn1)C(=O)N[C@@](C)(Cc1ccccc1F)C(=O)N[C@H](C(=O)N[C@@H](CO)C(=O)N[C@@H](CC(=O)O)C(=O)N[C@@H](Cc1ccc(-c2ccccc2)cc1)C(=O)N[C@@](C)(CCc1ccccc1)C(N)=O)[C@@H](C)O [4-2, H2N-His-Aib-Glu-Gly-Thr-α-MePhe(2-F)-Thr-Ser-Asp-Bip-α-MeHph-C(O)NH2] (H-H[Aib]EGT[αMePhe(2-F)]TSD[Bip][X1]-NH2)
EC50 [3]: 5.5 nM

C[C@@H](O)[C@H](NC(=O)CNC(=O)[C@H](CCC(=O)O)NC(=O)C(C)(C)NC(=O)[C@@H](N)Cc1c[nH]cn1)C(=O)N[C@@](C)(Cc1ccccc1F)C(=O)N[C@H](C(=O)N[C@@H](CO)C(=O)N[C@@H](CC(=O)O)C(=O)N[C@@](C)(CCc1ccccc1)C(=O)N[C@@H](Cc1ccc(-c2ccccc2)cc1)C(N)=O)[C@@H](C)O [4-3, H2N-His-Aib-Glu-Gly-Thr-α-MePhe(2-F)-Thr-Ser-Asp-α-MeHph-Bip-C(O)NH2] (H-H[Aib]EGT[αMePhe(2-F)]TSD[X1][Bip]-NH2)
EC50 [3]: 184 nM

C[C@@H](O)[C@H](NC(=O)CNC(=O)[C@H](CCC(=O)O)NC(=O)C(C)(C)NC(=O)[C@@H](N)Cc1c[nH]cn1)C(=O)N[C@@](C)(Cc1ccccc1F)C(=O)N[C@H](C(=O)N[C@@H](CO)C(=O)N[C@@H](CC(=O)O)C(=O)N[C@@H](Cc1ccc(-c2ccccc2)cc1)C(=O)N[C@@H](CCc1ccc(O)cc1)C(N)=O)[C@@H](C)O [4-4, H2N-His-Aib-Glu-Gly-Thr-α-MePhe(2-F)-Thr-Ser-Asp-Bip-Hph(4-OH)-C(O)NH2] (H-H[Aib]EGT[αMePhe(2-F)]TSD[Bip][hTyr]-NH2)
EC50 [3]: 16.6 nM | EC50 [4]: 16.6 nM

C[C@@H](O)[C@H](NC(=O)CNC(=O)[C@H](CCC(=O)O)NC(=O)C(C)(C)NC(=O)[C@@H](N)Cc1c[nH]cn1)C(=O)N[C@@](C)(Cc1ccccc1F)C(=O)N[C@H](C(=O)N[C@@H](CO)C(=O)N[C@@H](CC(=O)O)C(=O)N[C@@H](Cc1ccc(-c2ccccc2)cc1)C(=O)N[C@@H](Cc1ccc(-c2ccccc2)cc1)C(=O)N[C@@H](CCCCN)C(N)=O)[C@@H](C)O [4-28, H2N-His-Aib-Glu-Gly-Thr-α-MePhe(2F)-Thr-Ser-Asp-Bip-Bip-Lys-NH2] (H-H[Aib]EGT[αMePhe(2-F)]TSD[Bip][Bip]K-NH2)
EC50 [4]: 16.1 nM

C[C@@H](O)[C@H](NC(=O)CNC(=O)[C@H](CCC(=O)O)NC(=O)C(C)(C)NC(=O)[C@@H](N)Cc1c[nH]cn1)C(=O)N[C@@](C)(Cc1ccccc1F)C(=O)N[C@H](C(=O)N[C@@H](CO)C(=O)N[C@@H](CC(=O)O)C(=O)N[C@@H](Cc1ccc(-c2ccccc2)cc1)C(=O)N[C@@H](Cc1ccc(-c2ccccc2)cc1)C(=O)NCCOCCOCC(=O)NCCOCCOCC(N)=O)[C@@H](C)O [4-29, H2N-His-Aib-Glu-Gly-Thr-α-MePhe(2F)-Thr-Ser-Asp-Bip-Bip-C(O)(AEEA)2-NH2] (H-H[Aib]EGT[αMePhe(2-F)]TSD[Bip][Bip][AEEA][AEEA]-NH2)
EC50 [4]: 10 nM

C[C@@H](O)[C@H](NC(=O)CNC(=O)[C@H](CCC(=O)O)NC(=O)C(C)(C)NC(=O)[C@@H](N)Cc1c[nH]cn1)C(=O)N[C@@](C)(Cc1ccccc1F)C(=O)N[C@H](C(=O)N[C@@H](CO)C(=O)N[C@@H](CC(=O)O)C(=O)N[C@@H](Cc1ccc(-c2ccccc2)cc1)C(=O)N[C@@H](Cc1ccc(-c2ccccc2)cc1)C(=O)NCCOCCOCC(=O)NCCOCCOCC(=O)N[C@@H](CCCCN)C(N)=O)[C@@H](C)O [4-30, H2N-His-Aib-Glu-Gly-Thr-α-MePhe(2F)-Thr-Ser-Asp-Bip-Bip-C(O)(AEEA)2-Lys-NH2] (H-H[Aib]EGT[αMePhe(2-F)]TSD[Bip][Bip][AEEA][AEEA]K-NH2)
EC50 [4]: 14 nM
